{"source": "patent US20040082018A1", "about": "“Methods for using osteocalcin” (Athersys, Inc., priority 2002, published 2004)", "format_in_all_cases": "cell-based", "key": {"CaR2": {"target": "T1, CaR2 (Homo sapiens, UniProt Q5T6X5)", "T1 construct": "expressed in transfected cells", "T1 sequence (Q5T6X5 19-926)": "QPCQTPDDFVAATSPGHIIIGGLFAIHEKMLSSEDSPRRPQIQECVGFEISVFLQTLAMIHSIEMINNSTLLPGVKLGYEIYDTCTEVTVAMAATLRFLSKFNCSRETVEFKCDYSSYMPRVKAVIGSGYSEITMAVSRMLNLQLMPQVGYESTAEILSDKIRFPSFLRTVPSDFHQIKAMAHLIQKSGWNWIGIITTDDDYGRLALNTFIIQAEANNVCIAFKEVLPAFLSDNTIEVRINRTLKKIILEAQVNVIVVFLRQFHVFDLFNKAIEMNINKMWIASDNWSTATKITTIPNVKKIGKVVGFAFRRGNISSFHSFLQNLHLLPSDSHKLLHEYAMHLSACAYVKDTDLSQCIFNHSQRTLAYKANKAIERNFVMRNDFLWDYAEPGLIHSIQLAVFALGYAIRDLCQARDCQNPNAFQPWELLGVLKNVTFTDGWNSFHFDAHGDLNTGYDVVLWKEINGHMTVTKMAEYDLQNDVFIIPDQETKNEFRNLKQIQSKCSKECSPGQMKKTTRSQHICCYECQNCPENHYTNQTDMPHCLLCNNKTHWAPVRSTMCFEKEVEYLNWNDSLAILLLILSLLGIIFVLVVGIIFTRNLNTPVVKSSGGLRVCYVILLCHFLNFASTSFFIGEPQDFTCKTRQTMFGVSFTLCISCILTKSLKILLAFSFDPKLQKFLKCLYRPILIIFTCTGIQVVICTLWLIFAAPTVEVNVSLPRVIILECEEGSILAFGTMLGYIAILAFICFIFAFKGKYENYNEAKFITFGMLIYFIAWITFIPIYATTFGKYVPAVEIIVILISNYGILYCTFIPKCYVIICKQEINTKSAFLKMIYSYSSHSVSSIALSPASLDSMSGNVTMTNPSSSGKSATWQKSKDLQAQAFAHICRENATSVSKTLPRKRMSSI", "assay": "FLIPR assay of intracellular Ca^++ in HEK293 clone HEK-167B12-2.1 stably expressing CaR2", "settings": "for FLIPR response (change of intracellular Ca^++ levels): initial ligand testing in the transfected cells; for effect on OC/Ca^++ activation of CaR2: OC and Ca^2+ pre-incubated with / in the presence of lead ion", "protocol": "To facilitate pharmacological experimentation, CaR2 cDNA was cloned into the mammalian expression vector pcDNA 3.1 (+) Neo with or without a COOH-terminal FLAG epitope. The transgene was introduced into the HEK293 cell line and stable transfectants were identified. These clones were analyzed for CaR2 expression by qPCR and Western blotting to identify those clones that were suitable for ligand identification. The clone HEK-167B12-2.1 was chosen for further experimentation.\nBased on the homology to the characterized goldfish odorant receptor 5.24, initial studies investigated the ability of 18 naturally occurring amino acids to trigger changes of intracellular Ca^++ levels in the transfected cells, as measured with a fluorescent imaging plate reader (FLIPR).\n(§1) Intracellular Ca^++ was measured using a fluorometric imaging plate reader (FLIPR) [Molecular Devices]. Cells were seeded at a density of 1×10^5/well (96-well plate) or 1×10^4/well (384-well plate) in collagen coated plates and incubated overnight at 36.9° C. with 5% CO2. Medium was aspirated from the plates and replaced with equal volumes of a no wash calcium dye (Molecular Devices) and modified Hank's buffered saline solution [Ca^2+-free, Mg^2+-free] (140 mM NaCl, 5.4 mM KCl, 0.64 mM KH2PO4, 3 mM NaHCO3, 5.5 mM C6H12O6, 20 mM HEPES, 2.5 mM Caprylic acid (or 2.5 mM probenecid)). The plates were incubated for 1 hour at 36.9° C. with 5% CO2. FLIPR was used to measure changes in intracellular calcium as relative fluorescence upon activation by ligand."}, "parental HEK293 cells": {"test_system": "parental HEK293 cells", "assay": "FLIPR assay of intracellular Ca^++ in parental HEK293 cells that do not express CaR2", "protocol": "as §1\n(§2) Also, the apical side of cells lining tubules in Henle's loop in kidney and in epithelial cells lining prostate ducts are microenvironments where CaR2 would encounter higher than standard extracellular Ca^++."}, "CaR": {"target": "T2, CaR (Homo sapiens, UniProt P41180)", "T2 construct": "expressed in transfected cells; host or cells: HEK 293", "T2 sequence (P41180 20-1078)": "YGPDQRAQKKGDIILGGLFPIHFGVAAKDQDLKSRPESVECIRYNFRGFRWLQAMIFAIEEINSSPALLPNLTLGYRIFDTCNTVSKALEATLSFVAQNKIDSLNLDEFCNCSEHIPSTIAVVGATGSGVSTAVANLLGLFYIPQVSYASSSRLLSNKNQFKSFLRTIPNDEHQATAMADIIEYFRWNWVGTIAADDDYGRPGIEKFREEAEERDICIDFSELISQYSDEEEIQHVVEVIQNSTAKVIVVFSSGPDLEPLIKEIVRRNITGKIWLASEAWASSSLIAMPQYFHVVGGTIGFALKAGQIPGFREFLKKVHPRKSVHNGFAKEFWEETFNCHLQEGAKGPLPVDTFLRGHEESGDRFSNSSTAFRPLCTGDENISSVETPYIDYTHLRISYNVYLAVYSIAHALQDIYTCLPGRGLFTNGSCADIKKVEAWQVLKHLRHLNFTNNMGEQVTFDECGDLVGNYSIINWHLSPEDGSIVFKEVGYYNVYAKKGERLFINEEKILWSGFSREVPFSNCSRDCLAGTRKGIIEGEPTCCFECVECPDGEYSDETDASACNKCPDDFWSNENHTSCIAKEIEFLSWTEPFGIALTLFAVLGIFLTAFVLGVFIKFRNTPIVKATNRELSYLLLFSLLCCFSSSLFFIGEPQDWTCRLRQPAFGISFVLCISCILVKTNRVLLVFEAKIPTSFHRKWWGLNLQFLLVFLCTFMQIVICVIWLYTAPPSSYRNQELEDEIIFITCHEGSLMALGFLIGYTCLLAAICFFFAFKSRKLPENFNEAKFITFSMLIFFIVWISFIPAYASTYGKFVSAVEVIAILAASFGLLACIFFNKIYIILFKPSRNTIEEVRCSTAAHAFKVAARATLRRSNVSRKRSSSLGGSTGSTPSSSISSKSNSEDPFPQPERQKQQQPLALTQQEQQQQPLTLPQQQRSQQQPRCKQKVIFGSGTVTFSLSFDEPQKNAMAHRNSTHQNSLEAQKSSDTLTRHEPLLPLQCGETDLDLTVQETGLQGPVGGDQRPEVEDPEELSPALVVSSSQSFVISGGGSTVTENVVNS", "assay": "Ca^++ response of HEK 293 cells that express the previously characterized CaR", "protocol": "as §1, §2"}}, "note": "No end group written: not given here.", "data": [{"molecule": "NCCCC(=O)O", "note": "[GABA]", "values": [{"measurement": "FLIPR response (change of intracellular Ca^++ levels)", "setting": "CaR2", "value": "failed to elicit a positive FLIPR response"}]}, {"molecule": "[Pb+2]", "note": "[Pb^2+]", "values": [{"measurement": "effect on OC/Ca^++ activation of CaR2", "setting": "CaR2", "value": "reversed"}, {"measurement": "effect on OC/Ca^++ activation of CaR2", "setting": "CaR2; listed as Pb^++", "value": "blocked"}]}, {"molecule": "[Ca+2]", "note": "[Ca^++, calcium]", "values": [{"measurement": "activation of CaR2", "setting": "CaR2; 10 mM Ca^++", "value": "modest activation"}, {"measurement": "activation of CaR2", "setting": "CaR2; 40 mM Ca^++", "value": "robustly activated"}, {"measurement": "EC50", "setting": "CaR2; Ca^++ as activating ligand, clone expressing CaR2", "value": 85, "unit": "mM"}, {"measurement": "calcium level causing a marked increase in fluorescence signal, hence intracellular Ca^++", "setting": "CaR2; clone expressing CaR2", "value": "> 20", "unit": "mM"}, {"measurement": "FLIPR response (change of intracellular Ca^++ levels)", "setting": "CaR2", "value": "failed to elicit a positive FLIPR response"}, {"measurement": "increase in fluorescence signal by high calcium levels", "setting": "parental HEK293 cells; parental cell line, >20 mM calcium", "value": "not observed"}, {"measurement": "EC50", "setting": "CaR; transfected HEK 293 cells", "value": 4.1, "unit": "mM"}]}, {"molecule": "CN[C@H](CC(=O)O)C(=O)O", "note": "[NMDA]", "values": [{"measurement": "FLIPR response (change of intracellular Ca^++ levels)", "setting": "CaR2", "value": "failed to elicit a positive FLIPR response"}]}, {"molecule": "osteocalcin (YLYQWLGAPVPYPDPLEPRREVCELNPDCDELADHIGFQEAYRRFYGPV; ends and bridges not checked; cysteine pairing not given here; UniProt P02818 52-100, looked up)", "values": [{"measurement": "OC activation of CaR2", "setting": "CaR2; OC pre-incubated with 10 mM Ca^++", "value": "activates CaR2 when pre-incubated with 10 mM Ca^++ in a dose-dependent manner"}, {"measurement": "effect of OC on CaR2 activation by calcium", "setting": "CaR2; in the presence of osteocalcin", "value": "activated at lower calcium levels and the activation by high mM calcium was potentiated"}, {"measurement": "synergistic effect of Ca^++ and osteocalcin on CaR2, dependence on pre-incubation", "setting": "CaR2; pre-incubated versus both ligands added separately", "value": "only witnessed when calcium is pre-incubated with OC, but not when both ligands are added separately"}, {"measurement": "synergistic effect of Ca^++ and osteocalcin", "setting": "parental HEK293 cells; OC and Ca^++ added to parental HEK293 cells", "value": "not observed"}, {"measurement": "synergistic effect of Ca^++ and osteocalcin", "setting": "CaR; OC and Ca^++ added to HEK293 cells that express CaR", "value": "not observed"}]}]}
